Active and inactive are the calls of the source. Where a SMILES comes first, the peptide text is derived from it.
Key:
Cell membrane [1] = assay: Induction of morpholoical changes in membrane of Escherichia coli ATCC 25922 assessed as breakage in bacterial membrane at 1 times MIC after 1 hr by scanning electron microscopy
Escherichia coli [2] = assay: Antibacterial activity against Escherichia coli ATCC 25922 after 18 to 24 hrs by CLSI-based broth microdilution method; assay type: functional; conditions: time hrs 18-24
[3] = Therapeutic index, ratio of MHC for human RBC to geometric mean of peptide MIC for Salmonella pullorum 7913; assay type: toxicity; conditions: human red blood cells (RBC), read-out: TI
[4] = Toxicity in C57BL/6 mouse assessed as effect on alanine aminotransferase level at 10 mg/kg, ip measured after 5 days; assay type: organism-based; conditions: in vivo, 120 h, time 5 day
Escherichia coli [5] = assay: Antibacterial activity against Escherichia coli ATCC 25922 infected in C57BL/6 mouse assessed as reduction in lesion in lung at 10 mg/kg, ip measured after 11 hrs by hematoxylin and eosin staining based assay; assay type: functional, organism-based
Cell membrane [6] = assay: Induction of morpholoical changes in membrane of Staphylococcus aureus ATCC 29213 assessed as corrugation in bacterial membrane at 1 times MIC after 1 hr by scanning electron microscopy; assay type: subcellular
Escherichia coli [7] = assay: Antibacterial activity against Escherichia coli ATCC 25922 measured after 18 to 24 hrs in presence of pepsin by CLSI-based broth microdilution method; assay type: functional, organism-based; conditions: time hrs 18-24
Staphylococcus aureus [8] = assay: Antibacterial activity against Staphylococcus aureus ATCC 29213 after 18 to 24 hrs in presence of 6 uM NH4+ by CLSI-based broth microdilution method; assay type: functional; conditions: time hrs 18-24
Escherichia coli [9] = assay: Antibacterial activity against Escherichia coli ATCC 25922 infected in C57BL/6 mouse assessed as reduction in IL-1beta level in serum at 10 mg/kg, ip measured after 11 hrs by ELISA; assay type: functional, organism-based
[10] = test system: Staphylococcus epidermidis; assay: Antibacterial activity against Staphylococcus epidermidis ATCC 12228 after 18 to 24 hrs by CLSI-based broth microdilution method; assay type: functional; conditions: time hrs 18-24
[11] = Toxicity in C57BL/6 mouse assessed as change in body weigh at 10 mg/kg, ip measured for 5 days; assay type: organism-based; conditions: in vivo, 120 h, time 5 day
Escherichia coli [12] = assay: Antibacterial activity against Escherichia coli ATCC 25922 infected in C57BL/6 mouse assessed as reduction in bacterial load in lung at 10 mg/kg, ip measured after 11 hrs (reference value: 6.48 log CFU/g); assay type: functional
Staphylococcus aureus [13] = assay: Antibacterial activity against Staphylococcus aureus ATCC 29213 after 18 to 24 hrs in presence of 4.5 mM K+ by CLSI-based broth microdilution method; assay type: functional; conditions: time hrs 18-24
Escherichia coli [14] = assay: Antibacterial activity against Escherichia coli UB1005 after 18 to 24 hrs by CLSI-based broth microdilution method; assay type: functional; conditions: time hrs 18-24
Escherichia coli [15] = assay: Antibacterial activity against Escherichia coli ATCC 25922 measured after 18 to 24 hrs in presence of trypsin by CLSI-based broth microdilution method; assay type: functional, organism-based; conditions: time hrs 18-24
Escherichia coli [16] = assay: Antibacterial activity against Escherichia coli ATCC 25922 measured after 18 to 24 hrs in presence of proteinase K by CLSI-based broth microdilution method; assay type: functional, organism-based; conditions: time hrs 18-24
Escherichia coli [17] = assay: Antibacterial activity against Escherichia coli ATCC 25922 after 18 to 24 hrs in presence of 6 uM Fe3+ by CLSI-based broth microdilution method; assay type: functional; conditions: time hrs 18-24
Staphylococcus aureus [18] = assay: Antibacterial activity against Staphylococcus aureus ATCC 29213 after 18 to 24 hrs in presence of 6 uM Fe3+ by CLSI-based broth microdilution method; assay type: functional; conditions: time hrs 18-24
Staphylococcus aureus [19] = assay: Antibacterial activity against Staphylococcus aureus 29213 with 0.0625-2 mg/mL chymotrypsin for 1 hr followed by test compound addition measured after 4 to 8 hrs by CLSI-based broth microdilution method; assay type: functional, organism-based; conditions: time hrs 4-8
Staphylococcus aureus [20] = assay: Antibacterial activity against Staphylococcus aureus 29213 with 0.0625-2 mg/mL trypsin for 1 hr followed by test compound addition measured after 4 to 8 hrs by CLSI-based broth microdilution method; assay type: functional, organism-based; conditions: time hrs 4-8
Cell membrane [21] = assay: Induction of structural changes in membrane of Escherichia coli ATCC 25922 assessed as cytoplasmic leakage at 1 times MIC after 1 hr by transmission electron microscopy
[22] = Toxicity in C57BL/6 mouse assessed as effect on alanine aminotransferase level at 20 mg/kg, ip measured after 5 days; assay type: organism-based; conditions: in vivo, 120 h, time 5 day
Escherichia coli [23] = assay: Antibacterial activity against Escherichia coli ATCC 25922 infected in C57BL/6 mouse reduction in inflammatory cell infiltration in liver at 10 mg/kg, ip measured after 11 hrs by hematoxylin and eosin staining based assay; assay type: functional, organism-based
Escherichia coli [24] = assay: Antibacterial activity against Escherichia coli ATCC 25922 infected in C57BL/6 mouse assessed as reduction in bacterial load in spleen at 10 mg/kg, ip measured after 11 hrs (reference value: 6.02 log CFU/g); assay type: functional
[25] = Stability of compound assessed as chymotrypsin (unknown origin)-mediated drug degradation after 8 hrs by SDS-PAGE analysis; assay type: ADME; conditions: human
[26] = Toxicity in C57BL/6 mouse assessed as effect on total bilirubin level at 20 mg/kg, ip measured after 5 days; assay type: organism-based; conditions: in vivo, 120 h, time 5 day
Staphylococcus aureus [27] = assay: Antibacterial activity against Staphylococcus aureus ATCC 29213 after 18 to 24 hrs in presence of 150 mM Na+ by CLSI-based broth microdilution method; assay type: functional; conditions: time hrs 18-24
Escherichia coli [28] = assay: Antibacterial activity against Escherichia coli ATCC 25922 infected in C57BL/6 mouse assessed as reduction in lesion in kidney at 10 mg/kg, ip measured after 11 hrs by hematoxylin and eosin staining based assay; assay type: functional, organism-based
[29] = Toxicity in C57BL/6 mouse assessed as effect on blood urea nitrogen level at 20 mg/kg, ip measured after 5 days; assay type: organism-based; conditions: in vivo, 120 h, time 5 day
Streptococcus agalactiae = assay: Antibacterial activity against Streptococcus agalactiae H92 after 18 to 24 hrs by CLSI-based broth microdilution method; assay type: functional; conditions: time hrs 18-24
Cell membrane [30] = assay: Induction of structural changes in membrane of Escherichia coli ATCC 25922 assessed as sparsity at 1 times MIC after 1 hr by transmission electron microscopy; assay type: subcellular
Escherichia coli [31] = assay: Antibacterial activity against Escherichia coli ATCC 25922 infected in C57BL/6 mouse assessed as reduction in bacterial load in liver at 10 mg/kg, ip measured after 11 hrs (reference value: 7.12 log CFU/g); assay type: functional
[32] = Antibacterial activity against Salmonella pullorum 7913 after 18 to 24 hrs by CLSI-based broth microdilution method; assay type: functional, Salmonella enterica subsp. enterica serovar Pullorum; conditions: Salmonella enterica, time hrs 18-24
[33] = Stability of compound assessed as pepsin (unknown origin)-mediated drug degradation after 8 hrs by SDS-PAGE analysis; assay type: ADME; conditions: human
[34] = Therapeutic index, ratio of MHC for human RBC to geometric mean of peptide MIC for Streptococcus agalactiae H92; assay type: toxicity; conditions: human red blood cells (RBC), read-out: TI
Cell membrane [35] = assay: Induction of structural changes in membrane of Staphylococcus aureus ATCC 29213 assessed as membrane damage at 1 times MIC after 1 hr by transmission electron microscopy; assay type: subcellular
Staphylococcus aureus [36] = assay: Displacement of BODIPY-TR-cadaverine from Staphylococcus aureus LTA after 4 hrs by fluorescence assay
[37] = Therapeutic index, ratio of MHC for human RBC to geometric mean of peptide MIC for methicillin-resistant Staphylococcus aureus 43300; assay type: toxicity; conditions: human red blood cells (RBC), read-out: TI
Salmonella enterica = assay: Antibacterial activity against Salmonella choleraesuis 503 after 18 to 24 hrs by CLSI-based broth microdilution method; assay type: functional; conditions: time hrs 18-24

CC[C@H](C)[C@H](N)C(=O)N[C@H](C(=O)N[C@H](C(=O)N[C@@H](CS)C(=O)N[C@@H](CCCNC(=N)N)C(=O)N[C@@H](CCCCN)C(=O)N1CCC[C@H]1C(=O)N[C@H](C(=O)N[C@H](C(=O)N[C@@H](CS)C(=O)N[C@@H](CCCNC(=N)N)C(=O)N[C@@H](CCCCN)C(=O)N1CCC[C@H]1C(=O)N[C@H](C(=O)N[C@H](C(=O)N[C@@H](CS)C(=O)N[C@@H](CCCNC(=N)N)C(=O)N[C@@H](CCCCN)C(=O)N1CCC[C@H]1C(=O)N[C@H](C(=O)N[C@H](C(=O)N[C@@H](CS)C(=O)N[C@@H](CCCNC(=N)N)C(=O)N[C@@H](CCCCN)C(=O)N1CCC[C@H]1C(=O)N[C@H](C(=O)N[C@H](C(=O)N[C@H](C(N)=O)[C@@H](C)CC)[C@@H](C)CC)[C@@H](C)CC)[C@@H](C)CC)[C@@H](C)CC)[C@@H](C)CC)[C@@H](C)CC)[C@@H](C)CC)[C@@H](C)CC)[C@@H](C)CC)[C@@H](C)CC (H-IIICRKPIICRKPIICRKPIICRKPIII-NH2)
4 µM: MIC [10] | MIC [32]
2 µM: MIC (Escherichia coli [2]) | MIC (Escherichia coli [14]) | MIC (Escherichia coli [17]) | MIC (Streptococcus agalactiae) | MIC (Salmonella enterica)
57: selectivity ratio [3]
16 µM: MIC (Staphylococcus aureus [27])
5.08 log10CFU/g: Activity (Escherichia coli [31])
5.58 log10CFU/g: Activity (Escherichia coli [12])
28.5: selectivity ratio [34] | selectivity ratio [37]
8 µM: MIC (Staphylococcus aureus [8]) | MIC (Staphylococcus aureus [13]) | MIC (Staphylococcus aureus [18])
4.89 log10CFU/g: Activity (Escherichia coli [24])
active: Activity (Cell membrane [1]) | Activity (Escherichia coli [5]) | Activity (Cell membrane [6]) | Activity (Escherichia coli [7]) | Activity (Escherichia coli [9]) | Activity (Escherichia coli [15]) | Activity (Escherichia coli [16]) | Activity (Staphylococcus aureus [19]) | Activity (Staphylococcus aureus [20]) | Activity (Cell membrane [21]) | Activity (Escherichia coli [23]) | Activity (Escherichia coli [28]) | Activity (Cell membrane [30]) | Activity (Cell membrane [35]) | Activity (Staphylococcus aureus [36]) Dose-dependent effect
Stable: Stabilty [25] | Stabilty [33]
Non-Toxic: Activity [4] | Activity [11] | Activity [22] | Activity [26] | Activity [29]

Reference: ChEMBL document CHEMBL4665709, “Rational Avoidance of Protease Cleavage Sites and Symmetrical End-Tagging Significantly Enhances the Stability and Therapeutic Potential of Antimicrobial Peptides” (J Med Chem, 2020)
